We go through 16 compounds from PubChem BioAssay (NCI).

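1) Cells in 96-well plates. 2) Compound, 48 h, 5 concentrations. 3) Linear interpolation between surrounding doses. 4) Unreached endpoint = highest concentration. At the TGI there is no net growth.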

The TGI is the concentration giving total growth inhibition. A high value points to less potent growth arrest.

Some test systems named below: MDA-MB-231 breast; NCI/ADR-RES ovarian; A549 NSCLC; T-47D breast; SNB-19 CNS; IGROV1 ovarian; SF-268 CNS; CAKI-1 renal; EKVX NSCLC; MDA-MB-435.
Holding throughout (test): DTP human tumour cell line panel, 48 h

Take `CC(C)[Si](OC1=CCC[C@H]2NC(=O)[C@@H](Cc3ccc([N+](=O)[O-])cc3)[C@@]12C)(C(C)C)C(C)C`: the TGI in the assay with MDA-MB-231 breast was 28.1 µM; in the assay with NCI/ADR-RES ovarian it was 28 µM; with A549 NSCLC it was 5.17 µM; in the assay with T-47D breast, 18.4 µM; in the assay on SNB-19 CNS, 25.9 µM; in the assay on IGROV1 ovarian, 28.8 µM. The TGI was 24.8 µM in the assay with SF-268 CNS, 26.2 µM in the assay on CAKI-1 renal and 18.7 µM in the assay with EKVX NSCLC.
As for `O=c1[nH]c(=S)c2[nH]c(=O)n(-c3ccccc3)c2[nH]1`, the TGI in the assay on MDA-MB-231 breast, with NCI/ADR-RES ovarian, in the assay with A549 NSCLC, in the assay with SNB-19 CNS, with IGROV1 ovarian and in the assay with MDA-MB-435 was > 100 µM throughout. The TGI with SF-268 CNS, in the assay on CAKI-1 renal and in the assay on EKVX NSCLC was > 100 µM throughout.
For the compound `CCC12C=CCN3CCC4(C(=C(C(=O)OC)C1)Nc1ccccc14)[C@H]32` (some centres not stated), the total growth inhibition concentration (TGI) in the assay on A549 NSCLC is > 100 µM; with SNB-19 CNS, 75 µM; with IGROV1 ovarian it was > 100 µM; in the assay on SF-268 CNS, 45.4 µM; with CAKI-1 renal, > 100 µM; with EKVX NSCLC, > 100 µM.
For `O[C@H]1[C@@H]2OC[C@@H](O)[C@H](OCc3ccccc3)[C@@](COCc3ccccc3)(O2)[C@@H]1OCc1ccccc1`, the TGI in the assay with MDA-MB-231 breast stood at 30.9 µM; with NCI/ADR-RES ovarian it was 32 µM; with A549 NSCLC, 33.3 µM; in the assay with SNB-19 CNS, 30 µM; in the assay on IGROV1 ovarian, 27.5 µM; in the assay with MDA-MB-435, 32.1 µM. In addition, the figures for the TGI in the assay on SF-268 CNS, with CAKI-1 renal and with EKVX NSCLC were 42.8 µM, 0.0898 µM and 30.3 µM, respectively.
With `CCN1CCC(O)(/C=C/c2ccc(Cl)cc2)C(C(=O)/C=C/c2ccc(Cl)cc2)C1` (configuration not stated), the TGI with A549 NSCLC was 92.5 µM; in the assay with SNB-19 CNS, > 100 µM; in the assay with IGROV1 ovarian, 62.6 µM; in the assay on SF-268 CNS, > 100 µM; with EKVX NSCLC, > 100 µM.
Take `CCCC(=O)OC1=C(c2ccccc2)Sc2ccccc2-n2cccc21`: the TGI in the assay with MDA-MB-231 breast, in the assay on A549 NSCLC, with T-47D breast, in the assay on IGROV1 ovarian, in the assay on MDA-MB-435 and with SF-268 CNS was > 10 µM in each case. Moreover, the TGI with CAKI-1 renal and in the assay with EKVX NSCLC was > 10 µM in each case.
In the case of `C#CC1(O)CC(c2ccccc2)N(C)C(c2ccccc2)C1` (configuration not stated), the TGI in the assay with A549 NSCLC, with SNB-19 CNS, in the assay on IGROV1 ovarian, in the assay on SF-268 CNS, in the assay with CAKI-1 renal and with EKVX NSCLC was > 100 µM in each case.
For `O=c1cc(-c2cccc(Br)c2)[nH]c2cc3c(cc12)OCO3`, the TGI in the assay on MDA-MB-231 breast was found to be 23.1 µM; in the assay on NCI/ADR-RES ovarian, 30.7 µM; in the assay with A549 NSCLC it was 25.2 µM; in the assay with T-47D breast it was 36.5 µM; in the assay on SNB-19 CNS it was 10.3 µM; with IGROV1 ovarian, 11.8 µM. Further, the TGI in the assay on MDA-MB-435 amounted to 3.02 µM; in the assay with SF-268 CNS it was 24 µM.
Turning to `COc1cc2c(cc1OC)C(=O)N1CCCC1C(=O)S2` (configuration not stated), the total growth inhibition concentration (TGI) in the assay on A549 NSCLC, in the assay on SNB-19 CNS, in the assay on IGROV1 ovarian, in the assay with SF-268 CNS and with EKVX NSCLC was > 100 µM each time.
Regarding `O=Cc1ccc2[nH]c(=O)oc2c1`, the TGI in the assay with MDA-MB-231 breast, in the assay with NCI/ADR-RES ovarian, in the assay on SNB-19 CNS, in the assay with IGROV1 ovarian, in the assay with MDA-MB-435 and in the assay on SF-268 CNS was > 100 µM throughout. The TGI in the assay on CAKI-1 renal and in the assay on EKVX NSCLC was > 100 µM in each case.
On to `Cc1ccc2c(c1)C/C(=C\c1ccccc1C(=O)O)C2=O`, for which the TGI in the assay with NCI/ADR-RES ovarian, in the assay on A549 NSCLC, with T-47D breast, with SNB-19 CNS, in the assay with IGROV1 ovarian and in the assay with MDA-MB-435 was > 100 µM throughout. Also, the total growth inhibition concentration (TGI) in the assay on SF-268 CNS, in the assay on CAKI-1 renal and with EKVX NSCLC was > 100 µM in each case.
`Cc1cccc2c(=O)c3c(O)cc4c(c3n(C)c12)C=CC(C)(C)O4`: the TGI in the assay on MDA-MB-231 breast, with NCI/ADR-RES ovarian, in the assay with A549 NSCLC, with SNB-19 CNS, in the assay with IGROV1 ovarian and in the assay with MDA-MB-435 was > 100 µM each time. Also, the TGI with SF-268 CNS, with CAKI-1 renal and with EKVX NSCLC was > 100 µM in each case.
Turning to `CCCCn1c2c(n(CCCC)c1=[Se])-c1c(n(CCCC)c(=[Se])n1CCCC)S[Se][Se]S2`, the TGI in the assay on MDA-MB-231 breast is 32.2 µM; in the assay on NCI/ADR-RES ovarian, 39.5 µM; in the assay on A549 NSCLC, > 61.3 µM; with SNB-19 CNS it was > 65.2 µM; with IGROV1 ovarian it was 18.5 µM; in the assay on MDA-MB-435, > 100 µM. Besides, the TGI with SF-268 CNS was > 100 µM; in the assay with CAKI-1 renal it was 17.7 µM; with EKVX NSCLC, > 100 µM.
On to `NCCSc1nc(N)c2ncn(C3OC(CO)C(O)C3O)c2n1` (configuration not stated), for which the TGI with A549 NSCLC, in the assay with SNB-19 CNS, in the assay on IGROV1 ovarian, in the assay with SF-268 CNS and in the assay with CAKI-1 renal was > 100 µM each time.
As for `O=C(CC(C(=O)c1cccs1)c1ccccc1)c1ccccc1O` (configuration not stated), the TGI in the assay with MDA-MB-231 breast was > 30 µM; in the assay on NCI/ADR-RES ovarian, > 25.3 µM; in the assay with A549 NSCLC it was > 100 µM; in the assay on T-47D breast it was > 40 µM; with SNB-19 CNS, > 100 µM; in the assay on IGROV1 ovarian, > 57.3 µM. Besides, the TGI in the assay with SF-268 CNS was > 35.1 µM; with CAKI-1 renal, > 67.3 µM; in the assay with EKVX NSCLC it was > 100 µM.
Regarding `CC1CC/C(=C\c2ccc(F)cc2)C2=C1C(c1ccc(F)cc1)n1c(s/c(=C\c3ccc(Cl)cc3)c1=O)=N2` (configuration not stated), the TGI with MDA-MB-231 breast, in the assay on A549 NSCLC, in the assay on SNB-19 CNS, in the assay on IGROV1 ovarian, with MDA-MB-435 and in the assay on SF-268 CNS was > 100 µM in each case. The concentration for total growth inhibition (TGI) in the assay on CAKI-1 renal and in the assay with EKVX NSCLC was > 100 µM in each case.
